Data on 5 compounds can be found in patent US20200268765A1, “METHOD OF TREATING MEDULLOBLASTOMA WITH AN EZH2 INHIBITOR” (Epizyme, Inc., priority 2015, published 2020).

Series [1] deals with G401 SNF5 mutant cell line. The series is described as follows: CellTiter-Glo Luminescent Cell Viability Assay after 7 days pretreatment. It is filed as cell-based. The following applies: pretreated for 7 days, replated on day 0; FIGS. 4A-4D. The procedure:
FIGS. 4A-4D are four graphs showing that G401 SNF5 mutant cell line is sensitive to Compound A in vitro. Wild type cell line SJCRH30 (FIG. 4A) and RD (FIG. 4C) and SNF5 mutant cell line G401 (FIG. 4B) and A204 (FIG. 4D) were pretreated for 7 days with indicated concentrations of Compound A and replated on day 0. Cell viability was determined by CellTiter-Glo® Luminescent Cell Viability Assay.
For orientation: ATP-based viability assays read luminescence as a measure of living cells.

The test system of a further series is G401 xenografts. The series is described as follows: G401 xenograft (malignant rhabdoid tumor model). It is filed as in vivo, SCID mice. The procedure:
Data represent the mean values±SEM (n=8). Compound administration was stopped on day 28. FIG. 5C: EZH2 target inhibition in G401 xenograft tumor tissue collected from a parallel cohort of mice on day 21. […] Horizontal lines represent group mean values. BLLQ=below lower limit of quantification. FIGS. 5D and 5E show Immunohistochemical staining of tumor histone methylation of tumor samples from the vehicle treated (FIG. 5D) and Compound A treated (FIG. 5E) (at 125 mg/kg) mice.
Data are presented as mean values±SEM (n=16 until day 21, n=8 from day 22 to 60). […] FIG. 15C: Tumor weights of 8 mice euthanized on day 21. ****p<0.0001, Fisher's exact test. FIG. 15D: Plasma was collected 5 min before and 3 h after dosing of Compound A on day 21, and compound levels were measured by LC-MS/MS. Animals were euthanized, and tumors were collected 3 h after dosing on day 21. Tumor homogenates were generated and subjected to LC-MS/MS analysis to determine Compound A concentrations. Note that tumor compound levels could not be determined from all animals especially in the higher dose groups because the xenografts were too small on day 21. Dots represent values for the individual animals; horizontal lines represent group mean values.
FIGS. 16A-16F are a series of graphs showing that Compound A eradicates SMARCB1-deleted MRT xenografts in SCID mice. […]

For series [2], the system named is cellular H3K27Me3 levels in G401 and RD cells. The series is described as follows: Cellular histone methylation (immunoblot of acid-extracted histones). It counts as cell-based. The procedure:
FIGS. 10A-10F are a series of graphs showing effects of Compound A on cellular global histone methylation and cell viability.
FIG. 12A: Cell lysates were analyzed by immunoblot with antibodies specific to SMARCB1, EZH2 and Actin (loading control). […] Cells were incubated with Compound A for 4 days, and acid-extracted histones were analyzed by immunoblot.
(In general: In western blotting, separated proteins are transferred to a membrane and probed.)

Series [3] deals with SMARCB1-deleted MRT cells. Put plainly: Cell cycle analysis (flow cytometry) and apoptosis (TUNEL assay). It is filed as cell-based. The conditions noted are these: 1 μM, up to 14 days, FIG. 13. The procedure:
Cell cycle analysis (by flow cytometry) and determination of apoptosis (by TUNEL assay) in RD (FIG. 13A) or G401 cells (FIG. 13B) during incubation with either vehicle or 1 μM Compound A for up to 14 days. G1 arrest was observed as of day 7 and apoptosis was induced as of day 11. Data are represented as mean values±SEM (n=2). The DMSO control values shown are the average±SEM from each time point. Cells were split and re-plated on days 4, 7 and 11 at the original seeding density.
(Flow cytometry measures light scatter and fluorescence of single cells or particles in a stream.)

The test system of the next series is SMARCB1 regulated genes. Put plainly: Gene expression by qPCR. The following applies: G401 and RD cells, 1 μM, 2, 4 and 7 days; FIGS. 14A-14L. It is filed as cell-based. The procedure: FIG. 14A: Basal expression of SMARCB1 regulated genes in G401 SMARCB1-deleted cells, relative to RD control cells (measured by qPCR, n=2). FIGS. 14B-14K: G401 and RD cells were incubated with either DMSO or 1 μM Compound A for 2, 4 and 7 days. Gene expression was determined by qPCR (n=2) and is expressed relative to the DMSO control of each time point. FIGS. 14B-14K correspond to genes GLI1, PTCh1, DOCK4, CD133, PTPRK, BIN1, CDKN1A, CDKN2A, EZH2, and MYC, respectively. FIG. 14L: G402 cells were incubated with either DMSO (left panel) or 1 μM Compound A (right panel) for 14 days. Cells were split and re-plated to the original seeding density on day 7.

The next series relates to medulloblastoma cells. Put plainly: Medulloblastoma cell growth (total cells per milliliter over time). It counts as cell-based. The conditions noted are these: for medulloblastoma cell growth (total cells per milliliter): as a function of time (days), FIGS. 26A-26C. The text has this: The total cells per milliliter of culture were counted each day for 10 days.
A further series can be described thus: Oral bioavailability. The following applies: in vivo.
Series [4] relates to primary medulloblastoma cells. The procedure:
FIG. 28A is a schematic diagram depicting the process by which primary medulloblastoma cell growth is evaluated ex vivo.
A slice culture of medulloblastoma was freshly isolated from a subject.
A patient having medulloblastoma underwent surgery to remove a slice of tumor tissue for testing. The medulloblastoma slice was cultured ex vivo on tissue supporting inserts (FIG. 28A). […] Following the treatment period, the cells of the slice culture were treated with BrdU for 4 hours prior to disaggregation and sorting by flow cytometry.

A further series relates to ATRT. The series is described as follows: ATRT survival in vivo. The conditions noted are these: versus vehicle; FIG. 29A.
In series [5] the test system is atypical teratoid rhabdoid tumors (ATRTs). The series is described as follows: ATRT cell self-renewal. It counts as cell-based. An excerpt:
FIG. 24A is a series of photographs showing control or EZH2 inhibitor-treated (DNZep-treated) atypical teratoid rhabdoid tumors (ATRTs) at 1, 3, 5, and 7 days post-treatment.
FIG. 24D is a series of photographs showing control or EZH2 inhibitor-treated (DNZep-treated) atypical teratoid rhabdoid tumors (ATRTs) at 3, 5, 8 and 10 days post-treatment.

The next series relates to BT-16 ATRT cell line. Put plainly: Surviving fraction after 2Gy radiation, BT-16. It counts as cell-based. The following applies: FIG. 25A. The text has this: FIG. 25A is a pair of graphs showing a surviving fraction of untreated or DZNEP-treated ATRT cells (from a BT-16 ATRT cell line) exposed to 2Gy radiation. Inhibition of EZH2 radio-sensitizes ATRT.
In the next series the test system is UPN737 ATRT cell line. The series is described as follows: Surviving fraction after 2Gy radiation, UPN737. The conditions noted are these: FIG. 25B. It counts as cell-based. An excerpt: FIG. 25B is a pair of graphs showing a surviving fraction of untreated or DZNEP-treated ATRT cells (from a UPN737 ATRT cell line, “737”) exposed to 2Gy radiation. Inhibition of EZH2 radio-sensitizes ATRT.

The test system of series [6] is SNF5 mutant cell lines A204, G401 and G402. The series is described as follows: Response of SNF5 mutant versus wild type cell lines to EZH2 compound. The following applies: compared to wild type cell lines RD and SJCRH30; FIGS. 2A-2E. It is filed as cell-based.
Series [7] concerns G401 SNF mutant cell line. Put plainly: Soft agar growth of G401 versus RD cells. It is filed as cell-based. The following applies: after 7 days in soft agar, compared to wild type cells RD; FIGS. 3A-3D. An excerpt: FIGS. 3A-3D are a series of bar graphs showing that G401 SNF mutant cell line is responding to Compound D after 7 days in soft agar compared to wild type cells RD.

In series [8] the test system is LNCAP prostate cancer cells. The series is described as follows: LNCAP cell growth inhibition in vitro. It is filed as cell-based. The following applies: FIG. 7A.
The subject of series [9] is ATRX mutant SCLC lines NCI-H446, SW1271 and NCI-H841. Put plainly: Response of ATRX mutant SCLC lines. It is filed as cell-based. The following applies: FIGS. 8A-8C. The text has this: FIGS. 8A-8C are three graphs establishing that ATRX mutant SCLC lines NCI-H446 (FIG. 8A), SW1271 (FIG. 8B) and NCI-H841 (FIG. 8C) are responding to Compound D.
The next series has as its system SCLC line NCI-H841. Put plainly: Microscopy of cell morphology. It counts as cell-based. The following applies: 4.1E-02 uM or 3.3 uM; FIGS. 9A-9C.
Where [10] appears, read: 500 nM or 2 μM, 4 days, compared to untreated control.

Entries after “also recorded” stand apart in the source; their conditions may differ.

In the case of `CCN(c1cc(-c2ccc(CN3CCOCC3)cc2)cc(C(=O)NCc2c(C)cc(C)[nH]c2=O)c1C)C1CCOCC1` [tazemetostat], in series [1], the “cell viability (sensitivity in vitro)” value is on record as “sensitive”. Also, the tumor regression entry in the series on G401 xenografts (administration stopped on day 28, FIGS. 5A-5B) is given as “durable regressions”; in the series with G401 xenografts (twice daily (BID) for 21 days, FIG. 15B) it was “Tumor regressions induced”. The “inhibition of cellular H3K27 methylation (specificity)” value in series [2] (4 days incubation, immunoblot, FIG. 12B) is listed as “Selective inhibition of cellular H3K27 methylation”. For the same compound, the “inhibition of cellular H3K27Me3 levels” value in series [2] (FIG. 10B) is “Concentration-dependent inhibition”. Moreover, the “day as of which apoptosis was induced” value in [3] (TUNEL) worked out at 11 days. Also, the “day as of which G1 arrest was observed” value in [3] was 7 days. In addition, the “expression of SMARCB1 regulated genes” value in the series on SMARCB1 regulated genes was “induces changes in expression”. The “medulloblastoma cell growth versus negative control (DMSO)” value with medulloblastoma cells (0.5 μM, 2 μM and 6 μM, counted each day for 10 days, FIG. 26C) is recorded as “significant decrease”. For the same compound, in the series with medulloblastoma cells (GSK-126, UNC 1999 and tazemetostat, FIG. 26D), the “effect on medulloblastoma cell growth compared with the other small molecule inhibitors tested” value was “superior ability to decrease medulloblastoma cell growth; also recorded: greatest effect”. In addition, the “medulloblastoma cell growth (total cells per milliliter)” value in the series with medulloblastoma cells was “decrease medulloblastoma cell growth”. Also, in “Oral bioavailability”, the oral bioavailability result is “orally bioavailable”. In addition, in series [4] (setting [10]), the “proportion of cells in the G0/G1 stage” value was “increased proportion”. For the same compound, in [4] (setting [10]), the “proportion of cells in the G2/M stage” value is reported as “decreased proportion”. For the same compound, the “primary medulloblastoma cell growth ex vivo (cell cycle stages)” value in series [4] (slice culture treated 4 days, FIG. 28B) is listed as “decreases primary medulloblastoma cell growth ex vivo”. Moreover, in [4] (slice culture treated 4 days, FIG. 28C), the “primary medulloblastoma cell growth ex vivo (BrdU)” value is listed as “decreases primary medulloblastoma cell growth ex vivo”. Besides, the “percent survival / ATRT in vivo” value in the series on ATRT was “decreases ATRT in vivo”.
For the compound `CC[C@H](C)n1cc(C)c2c(C(=O)NCc3c(C)cc(C)[nH]c3=O)cc(-c3ccc(N4CCNCC4)nc3)cc21` [GSK-126, reference compound], the “medulloblastoma cell growth (total cells per milliliter)” value in the series on medulloblastoma cells is listed as “decrease medulloblastoma cell growth”.
Consider `Nc1nccc2c1ncn2C1C=C(CO)C(O)C1O` (stereo not shown) [DNZep], for which the ATRT cell self-renewal entry in series [5] (1, 3, 5, and 7 days post-treatment, FIG. 24A) is given as “suppresses ATRT cell self-renewal”; in series [5] (3, 5, 8 and 10 days post-treatment, FIG. 24D), “suppresses ATRT cell self-renewal”. Also, the “radio-sensitization (surviving fraction)” value in the series on BT-16 ATRT cell line and in the series with UPN737 ATRT cell line was “radio-sensitizes” each time.
Consider `CCCc1cc(C)[nH]c(=O)c1CNC(=O)c1cc(-c2ccc(N3CCN(C(C)C)CC3)nc2)cc2c1cnn2C(C)C` [UNC 1999, reference compound], for which the “medulloblastoma cell growth (total cells per milliliter)” value with medulloblastoma cells is reported as “decrease medulloblastoma cell growth”.
For the compound `CCN(c1cc(-c2ccc(CN3CCOCC3)cc2)cc(C(=O)NCc2c(C)cc(C)[nH]c2=O)c1C)[C@H]1CC[C@H](N(C)C)CC1` [Compound D], the “response of cell lines to EZH2 compound” value in [6] is recorded as “selectively respond”. The “response in soft agar” value in series [7] was “responding”. Also, the cell growth inhibition entry in series [8] was “dose-dependent cell growth inhibition”. Besides, the “response of cell lines” value in series [9] was “responding”. Also, the cell morphology entry with SCLC line NCI-H841 is recorded as “changes morphology”.
